Like-named read-outs stand apart in the source and are kept apart here.
Assays:
[1] = target: Na^+, K^+ -ATPase receptor (Homo sapiens, UniProt P05023); assay: displacement of the specific 3H-ouabain binding from the Na+,K+-ATPase receptor
[2] = target: purified Na^+,K^+ -ATPase (Homo sapiens, UniProt P05023); assay: inhibition of the activity of the purified Na+,K+-ATPase (% hydrolysis of 32P-ATP); format: biochemical
[3] = purified Na+,K+-ATPase, read-out: Inhibitory Activity log IC50 (converted)
[4] = displacement of specific 3H-ouabain binding, read-out: Binding ^3 H-Ouab. Displacement log IC50 (converted)
[5] = read-out: Inhibitory Activity log IC50 (converted)

Q: `C[C@]12CC[C@H](O)C[C@H]1CC[C@@H]1[C@@H]2CC[C@]2(C)[C@@H](CC=NOCCCN)CC[C@]12O` (mixture of isomers) [Comp. I-bg, (EZ)-17β-[2-(3-Aminopropoxyimino)ethyl]-5β-androstane-3β,14β-diol] was tested. Which IC50 [1] did it give?
A: 50.1 nM

Q: What about the IC50 [2, 3] of the same compound?
A: 398 nM

Q: With `C[C@]12CC[C@H](O)C[C@H]1CC[C@@H]1[C@@H]2CC[C@]2(C)[C@@H](/C=C/C=C/C=N/NC3=NCCN3)CC[C@]12O` [Comp. I-av, (E,E,E)-17β-[5-(2-Imidazolin-2-yl)hydrazono-1,3-pentadienyl]-5β-androstane-3β,14β-diol] as the compound, how does the IC50 [1, 4] read?
A: 1000 nM

Q: What about the IC50 [2, 3] of the same compound?
A: 10000 nM

Q: Which results are given for `CN(C)CCON=CC[C@H]1CC[C@]2(O)[C@@H]3CC[C@@H]4C[C@@H](O)CC[C@]4(C)[C@H]3CC[C@]12C` (mixture of isomers) [Comp. I-bh, (EZ)-17β-[2-(2-Dimethylaminoethoxyimino)ethyl]-5β-androstane-3β,14β-diol]?
A: IC50 [1, 4]: 39.8 nM; IC50 [2, 3]: 631 nM

Q: With `CN(C)CCON=C/C=C/[C@H]1CC[C@]2(O)[C@@H]3CC[C@@H]4C[C@@H](OCCN)CC[C@]4(C)[C@H]3CC[C@]12C` (mixture of isomers) [Comp. I-cc, 3β-(2-Aminoethoxy)-17β-[3-(EZ)-(2-dimethylaminoethoxyimino)-1-(E)-propenyl]-5_62-androstane-14β-ol] as the compound, how does the IC50 [1, 4] read?
A: 20 nM

Q: And the IC50 [2, 3]?
A: 31.6 nM

Q: With `C[C@]12CC[C@H](OCCCN)C[C@H]1CC[C@@H]1[C@@H]2CC[C@]2(C)[C@@H](/C=C/C=N/NC(=N)N)CC[C@]12O` [qomp. I-cd, (E,E)-3β-(3-Aminopropoxy)-17β-(3-guanidinoimino-1-propenyl)-5β-androstane-3β,14β-diol] as the compound, how does the IC50 [1, 4] read?
A: 15.8 nM

Q: What about the IC50 [2, 3] of the same compound?
A: 79.4 nM

Q: For `C[C@]12CC[C@H](O)C[C@H]1CC[C@@H]1[C@@H]2CC[C@]2(C)[C@@H](/C=C/C=N/OCCCN)CC[C@]12O` [Comp. I-ap, (E,E)-17β-[3-(3-Aminopropoxyimino)-1-propenyl]-5β-androstane-3β,14β-diol], which IC50 [1] is on record?
A: 50.1 nM

Q: What about the IC50 [2, 3] of the same compound?
A: 100 nM

Q: For `CN(C)CCCON=C/C=C/[C@H]1CC[C@]2(O)[C@@H]3CC[C@@H]4C[C@@H](O)CC[C@]4(C)[C@H]3CC[C@]12C` (mixture of isomers) [Comp. I-ar, 17β-[3-(3-(EZ)-Dimethylaminopropoxyimino)-1-(E)-propenyl]-5β-androstane-3β,14β-diol], which IC50 [1, 4] is on record?
A: 63.1 nM

Q: And the IC50 [2, 3]?
A: 126 nM

Q: What does the source list for `C[C@]12CC[C@H](O)C[C@H]1CC[C@@H]1[C@@H]2CC[C@]2(C)[C@@H](/C=C/C=N/NC(N)=S)CC[C@]12O` [Comp. I-al, (E,E)-17β-(3-Thiosemicarbazono-1-propenyl)-5β-androstane-3β,14β-diol]?
A: IC50 [1, 4]: 3980 nM; IC50 [2, 3]: 39800 nM

Q: Which results are given for `C[C@]12CC[C@H](OCCN)C[C@H]1CC[C@@H]1[C@@H]2CC[C@]2(C)[C@@H](/C=C/C=NNC(=N)N)CC[C@]12O` (mixture of isomers) [Comp. I-cb]?
A: IC50 [1, 4]: 20 nM; IC50 [2, 3]: 100 nM

Q: Which results are given for `C[C@]12CC[C@H](O)C[C@H]1CC[C@@H]1[C@@H]2CC[C@]2(C)[C@@](O)(/C=C/C=N/NC3=NCCN3)CC[C@]12O` [Comp. I-bp, (E,E)-17β-[3-(2-Imidazolin-2-yl)hydrazono-1-propenyl]-5β-androstane-3β,14β,17α-triol]?
A: IC50 [1, 4]: 631 nM; IC50 [2, 5]: 7940 nM

Q: How did the IC50 [1] turn out when `C[C@]12CC[C@H](O)C[C@H]1CC[C@@H]1[C@@H]2CC[C@]2(C)[C@@H](/C=C/C=N/NC3=NCCN3)CC[C@]12O` [Comp. I-ac, (E,E)-17β-[3-(2-Imidazolin-2-yl)hydrazono-1-propenyl]-5β-androstane-3β,14β-diol] was run?
A: 50.1 nM

Q: For `CN(C)CCON=C/C=C/[C@H]1CC[C@]2(O)[C@@H]3CC[C@@H]4C[C@@H](OCCN5CCCC5)CC[C@]4(C)[C@H]3CC[C@]12C` (mixture of isomers) [Comp. I-by, 3β-[2-(1-Pyrrolidinyl)ethoxy]-17β-[3-(EZ)-(2-dimethylamino-ethoxyimino)-1-(E)-propenyl]-5β-androstane-14β-ol], which IC50 [1, 4] is on record?
A: 20 nM

Q: What about the IC50 [2, 3] of the same compound?
A: 31.6 nM

Q: `C[C@]12CC[C@H](O)C[C@H]1CC[C@@H]1[C@@H]2CC[C@]2(C)[C@@H](CCC=NNC3=NCCN3)CC[C@]12O` (mixture of isomers) [Comp. I-bj, (EZ)-17β-[3-(2-Imidazolin-2-yl)hydrazonopropyl]-5β-androstane-3β,14β-diol] was tested. Which IC50 [1, 4] did it give?
A: 251 nM

Q: And the IC50 [2, 5]?
A: 3160 nM

Q: How did the IC50 [1] turn out when `C[C@]12CC[C@H](O)C[C@H]1CC[C@@H]1[C@@H]2CC[C@]2(C)[C@@H](/C=C/C=NOCCNC(=N)N)CC[C@]12O` (mixture of isomers) [Comp. I-as, 17β-[3-(EZ)-(2-Guanidinoethoxyimino)-1-(E)-propenyl]-5β-androstane-3β,14β-diol] was run?
A: 100 nM

Q: And the IC50 [2, 3]?
A: 158 nM

Q: Which IC50 [2, 5] does the source give for `C[C@]12CC[C@H](O)C[C@H]1CC[C@@H]1[C@@H]2CC[C@]2(C)[C@@H](/C=C/C=C/C=N/NC3=NCCCN3)CC[C@]12O` [Comp. I-aw, (E,E,E)-17β-[5-(1,4,5,6-Tetrahydro-2-pyrimidinyl)hydrazono-1,3-pentadienyl]-5β-androstane-3β,14β-diol] here?
A: 15800 nM

Q: With `CN(C)CCON=CCC[C@H]1CC[C@]2(O)[C@@H]3CC[C@@H]4C[C@@H](O)CC[C@]4(C)[C@H]3CC[C@]12C` (mixture of isomers) [Comp. I-bn, (EZ)-17β-[3-(2-Dimethylaminoethoxyimino)propyl]-5β-androstane-3β,14β-diol] as the compound, how does the IC50 [1, 4] read?
A: 25.1 nM

Q: And the IC50 [2, 3]?
A: 100 nM

Q: Which IC50 [1, 4] does the source give for `CN(C)CCON=C/C=C/[C@H]1CC[C@]2(O)[C@@H]3CC[C@@H]4C[C@@H](OCCCN)CC[C@]4(C)[C@H]3CC[C@]12C` (mixture of isomers) [Comp. 1-ce, 3β-(3-Aminopropoxy)-17β-[3-(EZ)-(2-dimethylaminoethoxy-imino)-1-(E)-propenyl]-5β-androstane-14β-ol] here?
A: 15.8 nM

Q: What about the IC50 [2, 3] of the same compound?
A: 20 nM

Q: For `C[C@]12CC[C@H](O)C[C@H]1CC[C@@H]1[C@@H]2CC[C@]2(C)[C@@H](/C=C/C=N\NC3=NCCCN3)CC[C@]12O` [Comp. I-ah, 17β-[3-(Z)-(1,4,5,6-Tetrahydro-2-pyrimidinyl)hydrazono-1-(E)-propenyl]-5β-androstane-3β,14β-diol], which IC50 [1] is on record?
A: 794 nM

Q: And the IC50 [2, 5]?
A: 7940 nM

Q: Which IC50 [1] does the source give for `C[C@]12CC[C@@H](O)C[C@H]1CC[C@@H]1[C@@H]2CC[C@]2(C)[C@@H](/C=C/C=N/NC(=N)N)CC[C@]12O` [Comp. I-ej, (E,E)-17β-(3-Guanidinoimino-1-propenyl)-5β-androstane-3α,14β-diol] here?
A: 50.1 nM

Q: What about the IC50 [2, 3] of the same compound?
A: 316 nM

Q: With `C[C@]12CC[C@H](O)C[C@H]1CC[C@@H]1[C@@H]2CC[C@]2(C)[C@@H](CCC=NOCCN)CC[C@]12O` (mixture of isomers) [Comp. I-bm, (EZ)-17β-[3-(2-Aminoethoxyimino)propyl]-5β-androstane-3β,14β-diol] as the compound, how does the IC50 [1, 4] read?
A: 25.1 nM

Q: And the IC50 [2, 3]?
A: 79.4 nM

Q: What does the source list for `C[C@]12CC[C@H](O)C[C@H]1CC[C@@H]1[C@@H]2CC[C@]2(C)[C@@H](/C=C/C=N\NC(=N)N)CC[C@]12O` [Comp. I-ab, 17β-[3-(Z)-Guanidinoimino-1-(E)-propenyl]-5β-androstane-3β,14β-diol]?
A: IC50 [1, 4]: 316 nM; IC50 [2, 5]: 3160 nM

Q: Which IC50 [1] does the source give for `CN1CCN=C1N/N=C/C=C/[C@H]1CC[C@]2(O)[C@@H]3CC[C@@H]4C[C@@H](O)CC[C@]4(C)[C@H]3CC[C@]12C` [Comp. I-ae, (E,E)-17β-[3-(1-Methyl-2-imidazolin-2-yl)hydrazono-1-propenyl]-5β-androstane-3β,14β-diol] here?
A: 158 nM

Q: And the IC50 [2]?
A: 2510 nM

Q: Which IC50 [1, 4] does the source give for `CN(C)CCON=CC[C@H]1CC[C@]2(O)[C@@H]3CC[C@@H]4C[C@H](O)CC[C@]4(C)[C@H]3CC[C@]12C` (mixture of isomers) [Comp. I-cm, (EZ)-17β-[2-(2-Dimethylaminoethoxyimino)ethyl]-5β-androstane-3α,14β-diol] here?
A: 100 nM

Q: And the IC50 [2, 5]?
A: 1000 nM

Q: `CN(C)CCON=CC[C@@]1(O)CC[C@]2(O)[C@@H]3CC[C@@H]4C[C@@H](O)CC[C@]4(C)[C@H]3CC[C@]12C` (mixture of isomers) [Comp. I-bt, (EZ)-17β-[2-(2-Dimethylaminoethoxyimino)ethyl]-5β-androstane-3β,14β,17α-triol] was tested. Which IC50 [1, 4] did it give?
A: 794 nM

Q: What about the IC50 [2, 3] of the same compound?
A: 10000 nM

Q: With `C[C@]12CC[C@H](O)C[C@H]1CC[C@@H]1[C@@H]2CC[C@]2(C)[C@@H](CC=NOCCN)CC[C@]12O` (mixture of isomers) [Comp. I-bf, (EZ)-17β-[2-(2-Aminoethoxyimino)ethyl]-5β-androstane-3β,14β-diol] as the compound, how does the IC50 [1, 4] read?
A: 25.1 nM

Q: What about the IC50 [2, 3] of the same compound?
A: 316 nM

Q: `CN(C)CCNC(=N)N/N=C/C=C/[C@H]1CC[C@]2(O)[C@@H]3CC[C@@H]4C[C@@H](O)CC[C@]4(C)[C@H]3CC[C@]12C` [Comp. I-ai, (E,E)-17β-{3-[3-(2-Dimethylaminoethyl)guanidinoimino]-1-propenyl}-5β-androstane-3β,14β-diol] was tested. Which IC50 [1, 4] did it give?
A: 251 nM

Q: What about the IC50 [2, 5] of the same compound?
A: 3160 nM

Q: `C[C@]12CC[C@H](O)C[C@H]1CC[C@@H]1[C@@H]2CC[C@]2(C)[C@@H](/C=C/C=N/NC3=NCC(=O)N3)CC[C@]12O` [Comp. I-af, (E,E)-17β-[3-(5-Oxo-2-imidazolin-2-yl)hydrazono-1-propenyl]-5β-androstane-3β,14β-diol] was tested. Which IC50 [1, 4] did it give?
A: 2000 nM

Q: What about the IC50 [2, 3] of the same compound?
A: 39800 nM

Q: Which results are given for `CN(C)CCON=C/C=C/[C@H]1CC[C@]2(O)[C@@H]3CC[C@@H]4C[C@@H](O)CC[C@]4(C)[C@H]3CC[C@]12C` (mixture of isomers) [Comp. I-aq, 17β-[3-(EZ)-(2-Dimethylaminoethoxyimino)-1-(E)-propenyl]-5β-androstane-3β,14β-diol]?
A: IC50 [1, 4]: 25.1 nM; IC50 [2, 3]: 31.6 nM

Q: Which IC50 [1] does the source give for `C[C@]12CC[C@H](O)C[C@H]1CC[C@@H]1[C@@H]2CC[C@]2(C)[C@@H](/C=C/C=N\NC3=NCCN3)CC[C@]12O` [Comp. I-ad, 17β-[3-(Z)-(2-Imidazolin-2-yl)hydrazono-1-(E)-propenyl]-5β-androstane-3β,14β-diol] here?
A: 631 nM

Q: Which IC50 [1, 4] does the source give for `C[C@]12CC[C@H](O)C[C@H]1CC[C@@H]1[C@@H]2CC[C@]2(C)[C@@H](/C=C/C=C/C=N/N=C(N)N)CC[C@]12O` [Comp. I-au] here?
A: 501 nM
